Source: paper PMC7619385 (ACS infectious diseases, 2025)
Where two headings read alike, the source gives them in different places.

Biological target: T1, LmxCLK1 (Leishmania mexicana, UniProt E9AMP2)
T1 sequence (E9AMP2 1-422): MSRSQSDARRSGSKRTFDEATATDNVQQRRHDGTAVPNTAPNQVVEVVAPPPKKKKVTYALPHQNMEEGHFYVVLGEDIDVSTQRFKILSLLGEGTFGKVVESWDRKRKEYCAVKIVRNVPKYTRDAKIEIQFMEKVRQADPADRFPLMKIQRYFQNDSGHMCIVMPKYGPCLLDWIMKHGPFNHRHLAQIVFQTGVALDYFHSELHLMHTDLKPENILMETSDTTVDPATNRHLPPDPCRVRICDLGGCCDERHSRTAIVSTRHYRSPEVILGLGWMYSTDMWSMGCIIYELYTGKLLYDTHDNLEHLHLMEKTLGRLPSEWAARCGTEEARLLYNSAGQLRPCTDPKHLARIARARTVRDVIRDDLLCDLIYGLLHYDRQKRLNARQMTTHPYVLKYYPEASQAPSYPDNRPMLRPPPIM
Test: biochemical
Type: binding

[1] = DSF, 10 µM compound, 2 µM LmxCLK1, Run 1
[2] = DSF, 10 µM compound, 2 µM LmxCLK1, Run 2
[3] = DSF, 10 µM compound, 2 µM LmxCLK1, mean of two runs
[4] = DSF, 10 µM compound, 2 µM LmxCLK1, Run 1, read-out: ΔTm Run 1
[5] = DSF, 10 µM compound, 2 µM LmxCLK1, Run 2, read-out: ΔTm Run 2
[6] = DSF, 10 µM compound, 2 µM LmxCLK1, mean of two runs, read-out: ΔTm Average

Molecule	ΔTm Run 1 [1]	ΔTm Run 2 [2]	ΔTm Average [3]	ΔTm at 10 µM [4]	ΔTm at 10 µM [5]	ΔTm at 10 µM [6]	further results
C[C@]1(O)C[C@@H](c2nc(-c3ccc4ccc(-c5ccccc5)nc4c3)c3c(N)nccn32)C1 [OSI-906 (Linsitinib)]	0.0 °C	-0.3 °C	-0.2 °C	–	–	–	–
CO[C@@H](C(=O)N1Cc2n[nH]c(NC(=O)c3ccc(N4CCN(C)CC4)cc3)c2C1)c1ccccc1 [Danusertib (PHA-739358)]	–	–	–	0.3 °C	0.1 °C	0.2 °C	–
Cc1nc(NC(=O)N2CCC[C@H]2C(N)=O)sc1-c1ccnc(C(C)(C)C(F)(F)F)c1 [BYL719]	–	–	–	0.1 °C	0.2 °C	0.2 °C	–
Cc1cc(Nc2cc(N3CCN(C)CC3)nc(/C=C/c3ccccc3)n2)n[nH]1 [ENMD-2076]	–	–	–	0.3 °C	0.1 °C	0.2 °C	–
O=c1ncn2nc(Sc3ccc(F)cc3F)ccc2c1-c1c(Cl)cccc1Cl [VX-745]	–	–	–	0.4 °C	0.2 °C	0.3 °C	–
COc1cc2c(Nc3ccc(NC(=O)c4ccccc4)cc3)ncnc2cc1OCCCN1CCOCC1 [ZM 447439]	0.0 °C	-0.2 °C	-0.1 °C	–	–	–	–
CCCS(=O)(=O)Nc1ccc(F)c(C(=O)c2c[nH]c3ncc(-c4ccc(Cl)cc4)cc23)c1F [Vemurafenib (PLX4032)]	-0.1 °C	-0.1 °C	-0.1 °C	–	–	–	–
NC(=O)c1ncn([C@@H]2O[C@H](CO)[C@@H](O)[C@H]2O)c1N [Acadesine]	–	–	–	-0.2 °C	-0.2 °C	-0.2 °C	–
CCc1nc(-c2cccc(C)c2)c(-c2ccnc(NC(=O)c3ccccc3)c2)s1 [TAK-715]	–	–	–	0.5 °C	0.8 °C	0.7 °C	–
CCc1cccc(CC)c1NC(=O)N1Cc2n[nH]c(NC(=O)c3ccc(N4CCN(C)CC4)cc3)c2C1 [PHA-680632]	–	–	–	0.7 °C	0.6 °C	0.6 °C	–
COc1ccc2cc(-c3nc(-c4ccc([S+](C)[O-])cc4)[nH]c3-c3ccncc3)ccc2c1 (stereo not drawn) [Tie2 kinase inhibitor]	–	–	–	–	–	–	ΔTm Average: 0.1 °C; ΔTm Run 1: 0.1 °C; ΔTm Run 2: 0 °C
Cc1cc(NC(=O)c2cccc(NC(=O)/C=C/CN(C)C)c2)ccc1Nc1nccc(-c2cccnc2)n1 [JNK-IN-8]	–	–	–	0.2 °C	-0.5 °C	-0.1 °C	–
Nc1cccc(-c2cc3c(Oc4cccc(O)c4)ncnc3[nH]2)c1 [TWS119]	0.1 °C	0.2 °C	0.1 °C	–	–	–	–
Cn1cc(-c2ccc3nnc(Sc4ccc5ncccc5c4)n3n2)cn1 [SGX-523]	–	–	–	-0.1 °C	-0.2 °C	-0.1 °C	–
CC(C)(C)c1cc(NC(=O)Nc2ccc(-c3cn4c(n3)sc3cc(OCCN5CCOCC5)ccc34)cc2)no1 [Quizartinib (AC220)]	–	–	–	0.3 °C	0.2 °C	0.3 °C	–
S=C(NCc1ccc2c(c1)OCO2)N1CCN(c2ncnc3c2oc2ccccc23)CC1 [Amuvatinib (MP-470)]	0.1 °C	0.0 °C	0.1 °C	–	–	–	–
COc1ccc(N(C(=O)Oc2c(C)cccc2C)c2ccnc(Nc3ccc(N4CCN(C)CC4)cc3)n2)c(OC)c1 [WH-4-023]	–	–	–	–	–	–	ΔTm Average: -0.3; ΔTm Run 1: -0.4; ΔTm Run 2: -0.2
N#Cc1ccc2[nH]c(O)c(-c3ccc(CN4CCOCC4)cn3)c2c1 [AZD1080]	–	–	–	0.1 °C	-0.2 °C	-0.1 °C	–
COc1cc2c(Oc3ccc4[nH]c(C)cc4c3F)ncnc2cc1OCCCN1CCCC1 [Cediranib (AZD2171)]	0.5 °C	0.1 °C	0.3 °C	–	–	–	–

Molecule	ΔTm Run 1 [1]	ΔTm Run 2 [2]	ΔTm Average [3]	ΔTm at 10 µM [4]	ΔTm at 10 µM [5]	ΔTm at 10 µM [6]	further results
CCn1c(N)c(C(=O)NC)c(=O)c2ccc(C#C[C@@](C)(O)COC)nc21 [SAR131675]	0.0 °C	-0.1 °C	0.0 °C	–	–	–	–
COc1ccc(S(=O)(=O)N(C(C)=O)c2ccccc2/C=C/c2cc[n+]([O-])cc2)cc1 [HMN-214]	–	–	–	0.4 °C	0.1 °C	0.2 °C	–
CN1CCN(c2ccc3nc(-c4c(N)c5c(F)cccc5[nH]c4=O)[nH]c3c2)CC1 [Dovitinib (TKI-258)]	0.5 °C	0.2 °C	0.3 °C	–	–	–	–
COc1ccc2c(Oc3ccc(NC(=O)c4c(C)n(CC(C)(C)O)n(-c5ccccc5)c4=O)nc3)ccnc2c1 [AMG-458]	0.9 °C	1.0 °C	1.0 °C	–	–	–	–
CN(C)CCSSCCNC(=O)C1CCN(C(=O)CSc2ccc(Cl)cc2)CC1 [6H05]	–	–	–	–	–	–	ΔTm Average: -0.1; ΔTm Run 1: 0.1 °C; ΔTm Run 2: -0.2
O=C(Nc1c[nH]nc1-c1nc2ccc(CN3CCOCC3)cc2[nH]1)NC1CC1 [AT9283]	–	–	–	2.2 °C	2.1 °C	2.2 °C	–
Cc1c(F)cc(C(=O)NC2CC2)cc1-c1ccc(C(=O)NCC(C)(C)C)cn1 [Losmapimod (GW856553X)]	0.4 °C	0.1 °C	0.2 °C	–	–	–	–
COC(=O)[C@]12CCC(C)(C)C[C@H]1[C@H]1C(=O)C=C3[C@@]4(C)C=C(C#N)C(=O)C(C)(C)[C@@H]4CC[C@@]3(C)[C@]1(C)CC2 [Bardoxolone Methyl]	–	–	–	0.6 °C	0.5 °C	0.5 °C	–
S-Ruxolitinib (INCB018424)	0.6 °C	0.6 °C	0.6 °C	–	–	–	–
Cc1cc(N2CCOCC2)cc2[nH]c(-c3c(NC[C@@H](O)c4cccc(Cl)c4)cc[nH]c3=O)nc12 [BMS-536924]	0.2 °C	0.1 °C	0.1 °C	–	–	–	–
O=c1cc(CN2CCOCC2)occ1OCCCCCSc1ccnc2cc(C(F)(F)F)ccc12 [EHT 1864]	0.1 °C	-0.3 °C	-0.1 °C	–	–	–	–
NC(=O)c1ccc(N(C(N)=O)c2c(F)cccc2F)nc1-c1ccc(F)cc1F [VX-702]	–	–	–	0.3 °C	-0.2 °C	0 °C	–
CC(C)(C)c1cnc(CSc2cnc(NC(=O)C3CCNCC3)s2)o1 [SNS-032 (BMS-387032)]	0.2 °C	0.0 °C	0.1 °C	–	–	–	–
Cl.Cl.O=S(=O)(NCCNC/C=C/c1ccc(Br)cc1)c1cccc2cnccc12 [H 89 2HCl]	0.2 °C	-0.1 °C	0.0 °C	–	–	–	–
Cn1cnc2c(F)c(Nc3ccc(Br)cc3Cl)c(C(=O)NOCCO)cc21 [Selumetinib (AZD6244)]	–	–	–	0.3 °C	0.3 °C	0.3 °C	–
O=C(c1ccc(/C=C/c2n[nH]c3ccccc23)cc1)N1CCNCC1 [KW-2449]	–	–	–	0.4 °C	0.4 °C	0.4 °C	–
C[C@@H](Oc1cc(-c2cnn(C3CCNCC3)c2)cnc1N)c1c(Cl)ccc(F)c1Cl [Crizotinib (PF-02341066)]	1.4 °C	1.4 °C	1.4 °C	–	–	–	–
Cc1cnc(Nc2ccc(OCCN3CCCC3)cc2)nc1Nc1cccc(S(=O)(=O)NC(C)(C)C)c1 [TG101348 (SAR302503)]	0.2 °C	0.3 °C	0.3 °C	–	–	–	–
CO[C@H]1C[C@@H]2CC[C@@H](C)[C@@](O)(O2)C(=O)C(=O)N2CCCC[C@H]2C(=O)O[C@H]([C@H](C)C[C@@H]2CC[C@H](n3cnnn3)[C@H](OC)C2)CC(=O)[C@H](C)/C=C(\C)[C@@H](O)[C@@H](OC)C(=O)[C@H](C)C[C@H](C)/C=C/C=C/C=C/1C [Zotarolimus(ABT-578)]	0.2 °C	0.0 °C	0.1 °C	–	–	–	–
